What was measured:
[1] = antithrombotic effect (thrombosis prophylaxis) compared with Nafazatrom; type: in vivo; details: for antithrombotischer Effekt: at 100-fold dose increase compared with Nafazatrom
[2] = tested on: B-16a Tumorzellen; test: partial metastasis model: tail vein injection of B-16a tumour cells, oral pretreatment for three days (Beispiel 1); type: in vivo, C57BL/6J-Mäuse; details: 3 days before tail vein injection; for Metastasenpunkte: lungs 24 days after injection, score 1-10, mean ± S, n = 10; for Metastasenindex: treated group points / control group points
Protocol: Es wurden dieselben Tumor-Zellinien wie in EP-A 0 062 319 verwendet und auf die gleiche Weise in vivo gehalten. ;
Tumorzellen wurden dann aseptisch aus den Wirtsmäusen entnommen und unter Anwendung sequenzieller Collagenase-Verdauung dispergiert, wie unten beschrieben. Die entnommenen Tumoren wurden in Würfel (4 x 4 mm) zerteilt, und das gewürfelte Gewebe wurde auf 6 bis 8 sterile Polycarbonat-Erlenmeyerkolben aufgeteilt (etwa 500 mg/Kolben). Ein Anteil von 10 ml einer "Tumordispersionslösung" (TDS) wurde in jeden Kolben hinzugefügt.
Das gewürfelte Gewebe in der TDS wurde dann unter Luft in einem Dubnoff-Stoffwechsel-Schüttler (90 Schwingungen/min) dispergiert (30 min; 37°C). Die überstände wurden durch ein Seihtuch in sterile 50 ml-Rundboden-Zentrifugenröhrchen auf Polycarbonat gesammelt und 10 min (25°C) mit 900 U/min(100 g) in einem Sorvall SS-34 -Rotor zentrifugiert. Nach dem Zentrifugieren wurde die überstehende Fraktion verworfen. Das erhaltene zelluläre Material (Pellets) wurde zweimal mit MEM-Lösung gewaschen, wieder in MEM suspendiert und bei 4°C gehalten.
Zu dem verbleibenden gewürfelten Gewebe wurde ein Anteil von 10 ml TDS hinzugefügt, und das Gewebe wurde in einem Stoffwechselschüttler inkubiert, wie oben beschrieben, außer daß die Zeitdauer 60 min betrug. Das Zentrifugieren wurde wiederholt, und die wieder suspendierten Zellen wurden vereinigt.
(§1) Wie bereits weiter oben festgestellt wurde, ist die Metastase eine einzelne Erscheinung, die durch eine Reihe komplizierter Vorgänge verursacht wird. Gegenwärtig finden zwei "Modell"-Systeme für die Untersuchung der in vivo-Metastase verbreitete Anwendung. Das erste Modellsystem umfaßt die subkutante Injektion der Tumorzellen in das Tier. Die subkutante Injektion der Tumorzellen und anschließende Entwicklung eines Primärtumors, gefolgt von spontaner Metastase, wird als "volle" Metastase betrachtet. Ein anderes Modellsystem umfaßt die Injektion der Tumorzellen durch die Schwanzvene. In Anbetracht der Komplexität der Metastase gilt die Schwanzvenen-Injektion nur als partielles Modellsystem, da es nur die Vorgänge während des letzten Teils der Metastase wiedergibt. Das Schwanzvenen-Modellsystem gilt jedoch andererseits als außerordentlich günstig im Hinblick auf eine Standardisierung der Versuchsbedindungen Lvgl. "Methods in Cancer Research", Kapitel VII, Academic Press, Inc., 19787.
5 mg des jeweiligen Pyrazolonderivats wurden in 0,5 % Tylose aufgenommen und dann durch Behandlung mit Ultraschall (30 sec) gelöst. Die endgültige Konzentration der Substanzen wurde durch Verdünnung der Lösungen mit 0,5 % Tylose eingestellt.
(§2) Syngeneische C57BL/6J-Mäuse wurden während eines Zeitraumes von drei Tagen mit 0,005 mg/kg bis 5 mg/kg der beiden Substanzen in 0,2 ml 0,5 % Tylose peroral behandelt. Kontrolltiere erhielten täglich 0,2 ml 0,5 % Tylose. Am vierten Tag wurde den vorbehandelten Mäusen und Kontrollmäusen ein Suspension von 5 x 10^4 B-16a Tumorzellen über die Schwanzvene injiziert. Die Kontrollmäuse und die behandelten Mäuse wurden unter identischen Bedingungen der Temperatur, Lichteinwirkungsdauer, Ernährung etc. gehalten. Die Mäuse wurden 24 Tage nach erfolgter Schwanzvenen-Injektion getötet, und ihre Lungengewebe wurden untersucht. Der Grad der Metastasierung wurde nach Zahl und Größe der makroskopisch sichtbaren Metastasen mit Punktzahlen von 1 - 10 bewertet, welche die Relation zwischen Metastasenbedeckter und - freier Organfläche ausdrücken. Dabei werden die Punktzahlen nach folgenden Rahmenkriterien vergeben: 1 = 1 - 2 gerade erkennbare Metastasen, 5 = etwa 50 % der Organoberfläche ist von Metastasen bedeckt, 10 = fast keine normale Organoberfläche sichtbar.

[3] = tested on: B-16a-Zellen; test: full metastasis model: subcutaneous injection of B-16a cells, oral treatment for 27 days, metastatic lung nodules (Beispiel 4); type: in vivo, C57BL/6J-Mäuse; details: for Metastasenpunkte: lungs at 28 days; for Metastasenindex: treated / control points
Source text: as §1
Die Wirkung der Verabreichung der Pyrazolon-Verbindungen über einen längeren Zeitraum hinweg auf die Zahl der'metastatischen Lungen-Kolonien des B-16a Melanoms wurde wie nachstehend für Verbindung A beschrieben bestimmt.
10 mg Verbindung A wurden in 0,5 % Tylose aufgenommen und dann durch Behandlung mit Ultraschall (30 sec) gelöst. Die endgültige Konzentration der Substanz wurde durch Verdünnung der Lösung mit 0,5 % Tylose eingestellt. Die Substanz wurde jeden Tag neu gelöst.
Syngeneische C57BL/6J-Mäusen wurde eine Suspension von 1,0 x 10^5 B-16a-Zellen subkutan injiziert, die wie vorstehend beschrieben hergestellt wurde. Vom Tage nach der Tumorzell-Injektion ab erhielten die Mäuse 27 Tage peroral eine tägliche Einzeldosis von 0 bis 100 mg/kg der Pyrazolon-Verbindung. Die Kontroll-Mäuse und die behandelten Mäuse wurden unter identischen Bedingungen der Temperatur, Lichteinwirkungsdauer, Ernährung etc. gehalten. Die Mäuse wurden nach 28 Tagen getötet und die Zahl und Größe der metastatischen Knötchen in der Lunge bestimmt.

[4] = tested on: B-16a Tumorzellen; test: partial metastasis model: tail vein injection of B-16a tumour cells, oral treatment 3 days before and 2 days after tumour injection (Beispiel 2 and 3); type: in vivo, C57BL/6J-Mäuse; details: for Metastasenpunkte: score 1-10, mean ± S, n = 10; for Metastasenindex: treated / control points
Protocol: as §2
5 mg des jeweiligen Pyrazolonderivats wurden in 0,5 % Ty-lose aufgenommen und dann durch Behandlung mit Ultraschall (30 sec) gelöst. Die endgültige Konzentration der Substanzen wurde durch Verdünnung der Lösungen mit 0,5 % Tylose eingestellt.
(§3) Syngeneische C57BL/6J-Mäuse wurden während eines Zeitraumes von drei Tagen vor der Tumorinjektion und 2 Tagen nach der Tumorinjektion täglich mit 0,005 mg/kg bis 5 mg/kg der beiden Substanzen in 0,2 ml 0,5 % Tylose peroral behandelt. Kontrolltiere erhielten 0,2 ml 0,5 % Tylose. Am vierten Tag wurde den. vorbehandelten Mäusen und Kontrollmäusen eine Suspension von 5 x 10^4 B-16a Tumorzellen über die Schwanzvene injiziert.
20 mg des jeweiligen Pyrazolonderivats wurden in 0,5 % Tylose aufgenommen und dann durch Behandlung mit Ultraschall (30 sec) gelöst. Die endgültige Konzentration der Substanzen wurde durch Verdünnung der Lösungen mit 0,5 % Tylose eingestellt.
as §3, with “Syngeneische Tiere” for “Syngeneische C57BL/6J-Mäuse”, “mit 2 mg” for “mit 0,005 mg/kg”, “bis 200” for “bis 5”, “der” for “der beiden”, “wurde den” for “wurde den.”, “und Kontrolltieren” for “und Kontrollmäusen”

[5] = 0,5 mg/kg peroral daily for 27 days after s.c. tumour cell injection
[6] = 5 mg/kg peroral daily for 27 days after s.c. tumour cell injection
[7] = 25 mg/kg peroral daily for 27 days after s.c. tumour cell injection
[8] = 50 mg/kg peroral daily for 27 days after s.c. tumour cell injection
[9] = 75 mg/kg peroral daily for 27 days after s.c. tumour cell injection
[10] = 100 mg/kg peroral daily for 27 days after s.c. tumour cell injection

With `CC1=NN(CCOc2ccc3ccccc3c2)C(=O)C1C` (stereo not shown) [3,4-Dimethyl-Derivat] as the molecule, how does the “antithrombotischer Effekt” value [1] read?
Its value is “kein antithrombotischer Effekt feststellbar”.

With `O=C1CC(Cc2ccccc2)=NN1CCOc1ccc2ccccc2c1` [3-Benzyl-] as the molecule, how does the “antithrombotischer Effekt” value [1] read?
The value was “kein antithrombotischer Effekt feststellbar”.

Which “antithrombotischer Effekt” value [1] does the source give for `CC(C)C1=NN(CCOc2ccc3ccccc3c2)C(=O)C1` [3-Isopropyl-] here?
The value was “kein antithrombotischer Effekt feststellbar”.

Which “antithrombotischer Effekt” value [1] does the source give for `CCCC1=NN(CCOc2ccc3ccccc3c2)C(=O)C1` [3-n-Propyl-] here?
The value was “kein antithrombotischer Effekt feststellbar”.

For `CCC1=NN(CCOc2ccc3ccccc3c2)C(=O)C1` [Ethyl in der 3-Position des Nafazatroms], which “Wirkung bei der Thromboseprophylaxe” value ([1]; fraction of the effect of Nafazatrom) is on record?
Its value is 1/30.

Which Metastasenpunkte ([2]; 0,05 mg/kg peroral) does the source give for `CC1=NN(CCOc2ccc3ccccc3c2)C(=O)C1C` (stereo not shown) [Verbindung A] here?
The Metastasenpunkte was 5,3±1,5.

What about the Metastasenpunkte ([2]; 0,5 mg/kg peroral) of the same molecule?
The Metastasenpunkte was 4,1±1,4.

What about the Metastasenindex ([2]; 0,05 mg/kg peroral) of the same molecule?
Its Metastasenindex is 0,76.

And the Metastasenindex ([2]; 0,5 mg/kg peroral)?
Its Metastasenindex is 0,59.

What about the Metastasenpunkte ([2]; 0,005 mg/kg peroral) of the same molecule?
The Metastasenpunkte was 2,6±1,1.

And the Metastasenpunkte ([2]; 5 mg/kg peroral)?
The Metastasenpunkte was 2,3±1,2.

And the Metastasenindex ([2]; 0,005 mg/kg peroral)?
The Metastasenindex was 0,37.

And the Metastasenindex ([2]; 5 mg/kg peroral)?
The Metastasenindex was 0,33.

And the Metastasenpunkte [3, 5]?
The Metastasenpunkte was 2,9±2,6.

And the Metastasenindex [3, 5]?
Its Metastasenindex is 0,66.

And the Metastasenpunkte [3, 6]?
The Metastasenpunkte was 2,7±2,0.

What about the Metastasenindex [3, 6] of the same molecule?
Its Metastasenindex is 0,61.

What about the Metastasenpunkte [3, 7] of the same molecule?
Its Metastasenpunkte is 2,2±1,6.

What about the Metastasenindex [3, 7] of the same molecule?
Its Metastasenindex is 0,50.

And the Metastasenpunkte [3, 8]?
Its Metastasenpunkte is 2,1±1,5.

And the Metastasenindex [3, 8]?
Its Metastasenindex is 0,48.

And the Metastasenpunkte [3, 9]?
Its Metastasenpunkte is 1,3±1,4.

And the Metastasenindex [3, 9]?
The Metastasenindex was 0,30.

What about the Metastasenpunkte [3, 10] of the same molecule?
The Metastasenpunkte was 2,8±1,7.

What about the Metastasenindex [3, 10] of the same molecule?
Its Metastasenindex is 0,64.

What does the source list for `CC1=NN(CCOc2ccc3ccccc3c2)C(=O)C1(C)C` [Verbindung B]?
Metastasenpunkte ([2]; 0,05 mg/kg peroral): 4,2±2,6; Metastasenpunkte ([2]; 0,5 mg/kg peroral): 2,6±0,8; Metastasenindex ([2]; 0,05 mg/kg peroral): 0,60; Metastasenindex ([2]; 0,5 mg/kg peroral): 0,37; Metastasenpunkte ([2]; 0,005 mg/kg peroral): 4,9±2,2; Metastasenpunkte ([2]; 5 mg/kg peroral): 4,5±2,3; Metastasenindex ([2]; 0,005 mg/kg peroral): 0.70; Metastasenindex ([2]; 5 mg/kg peroral): 0,64

With `CC1=NN(Cc2ccoc2)C(=O)C1` [Verbindung C] as the molecule, how does the Metastasenpunkte ([4]; 0,05 mg/kg peroral daily) read?
The Metastasenpunkte was 4,3±1,7.

What about the Metastasenpunkte ([4]; 0,5 mg/kg peroral daily) of the same molecule?
The Metastasenpunkte was 4,7±2,1.

And the Metastasenindex ([4]; 0,05 mg/kg peroral daily)?
The Metastasenindex was 0,72.

And the Metastasenindex ([4]; 0,5 mg/kg peroral daily)?
The Metastasenindex was 0,78.

And the Metastasenpunkte ([4]; 0,005 mg/kg peroral daily)?
The Metastasenpunkte was 5,2±2,0.

And the Metastasenpunkte ([4]; 5 mg/kg peroral daily)?
The Metastasenpunkte was 5,3±2,0.

What about the Metastasenindex ([4]; 0,005 mg/kg peroral daily) of the same molecule?
Its Metastasenindex is 0,87.

And the Metastasenindex ([4]; 5 mg/kg peroral daily)?
The Metastasenindex was 0,88.

Which results are given for `CC1=NN(C(C)c2ccsc2)C(=O)C1` (stereo not shown) [Verbindung D]?
Metastasenpunkte ([4]; 0,05 mg/kg peroral daily): 3,8±1,8; Metastasenpunkte ([4]; 0,5 mg/kg peroral daily): 3,6±1,7; Metastasenindex ([4]; 0,05 mg/kg peroral daily): 0,63; Metastasenindex ([4]; 0,5 mg/kg peroral daily): 0,60; Metastasenpunkte ([4]; 0,005 mg/kg peroral daily): 4,7±1,9; Metastasenpunkte ([4]; 5 mg/kg peroral daily): 3,8±1,4; Metastasenindex ([4]; 0,005 mg/kg peroral daily): 0,78; Metastasenindex ([4]; 5 mg/kg peroral daily): 0,63

Which results are given for `COc1cc(N2N=C(N)CC2=O)ccc1C` [Verbindung E]?
Metastasenpunkte ([4]; 2 mg/kg peroral daily): 2,7±1,7; Metastasenindex ([4]; 2 mg/kg peroral daily): 0,66; Metastasenpunkte ([4]; 20 mg/kg peroral daily): 2,5±1,0; Metastasenindex ([4]; 20 mg/kg peroral daily): 0,61; Metastasenpunkte ([4]; 200mg/kg peroral daily): 2,7±1,5; Metastasenindex ([4]; 200mg/kg peroral daily): 0,66

For `CCCCCCCCCCCCCCCCCC1=NN(c2ccc(Oc3ccccc3)c(S(=O)(=O)O)c2)C(=O)C1` [Verbindung F], which Metastasenpunkte ([4]; 2 mg/kg peroral daily) is on record?
The Metastasenpunkte was 2,8±1,0.

And the Metastasenindex ([4]; 2 mg/kg peroral daily)?
The Metastasenindex was 0,68.

And the Metastasenpunkte ([4]; 20 mg/kg peroral daily)?
Its Metastasenpunkte is 3,0±1,1.

And the Metastasenindex ([4]; 20 mg/kg peroral daily)?
Its Metastasenindex is 0,73.

What about the Metastasenpunkte ([4]; 200mg/kg peroral daily) of the same molecule?
The Metastasenpunkte was 2,6±1,0.

And the Metastasenindex ([4]; 200mg/kg peroral daily)?
The Metastasenindex was 0,63.

From patent EP0121856A2, “Use of pyrazolone derivatives against the growth of tumour cells and their metastases, medicaments therefor and their preparation” (BAYER AG, priority 1983, dated 1984)
